# Test results reported in article PMC4491662, “Synthesis, Biological Evaluation and Molecular Modeling of Substituted Indeno[1,2-b]indoles as Inhibitors of Human Protein Kinase CK2” (Pharmaceuticals, 2015).
# Columns and labels:
# [1] = target: T1, human CK2 holoenzyme (Homo sapiens, UniProt P68400); details: read-out: IC50 ± SD, assay buffer with 100 µM ATP
# [2] = target: T1, human CK2 holoenzyme; assay: biochemical; details: average percent inhibition at 10 µM
# [3] = test system: MEF; assay: Cytotoxicity WST-1 assay on MEF; format: cell-based, mouse; details: Mus musculus, 96 h, read-out: EC50 in µM ± SD
# From the text: (§1) Four cell lines of various origins were used to evaluate the cytotoxicity of our target compounds 5–7. The selected cell lines were (i) NIH-3T3, a cell line originally established from the primary mouse embryonic fibroblast cells, (ii) MEF, primary mouse embryonic fibroblasts (used at their early passages) prepared as previously described, (iii) WI-38, a human diploid cell line derived from normal embryonic lung tissue, and (iv) HEK293T, a transformed variant of the human embryonic kidney cell line HEK293. After 96 h, cytotoxicity was evaluated using the WST-1 assay. […] Seventeen compounds were evaluated on the cell lines and then compared to TBB used as a standard. […]. All cells were grown in DMEM medium supplemented with 10% fetal calf serum, glutamine (2 mM), penicillin (100 U/mL), and streptomycin (50 μg/mL) at 37 °C under a humidified 5% CO2 atmosphere (Gibco). The assays were performed in sterile 96-wells microtiter plates (Falcon). Cells were plated at 500 (NIH-3T3), 750 (WI-38) or 1000 (MEF; HEK293T) cells/100 µL/well. Drug solutions (10 μL per well) of appropriate concentration (prepared by dilution in the culture medium from 2 mM stock acetonitrile solution) were added 24 h after cell seeding. For ellagic acid and emodin, DMSO was used to prepare the stock solution. After 96 h, the cytotoxicity is evaluated using the Cell Proliferation Reagent WST-1 following the procedure described by the manufacturer (Roche Applied Science). The drugs were assayed at 10, 5, 1, 0.2 and 0.04 µM in triplicate. The vehicle was used as control. The experiments were repeated three times.
# [4] = test system: WI-38; assay: Cytotoxicity WST-1 assay on WI-38; format: cell-based, human; details: Homo sapiens, WI-38, 96 h, read-out: EC50 in µM ± SD
# From the text: as §1
# [5] = test system: NIH-3T3; assay: Cytotoxicity WST-1 assay on NIH-3T3; format: cell-based, mouse; details: Mus musculus, NIH3T3, 96 h, read-out: EC50 in µM ± SD
# From the text: as §1
# [6] = Cytotoxicity WST-1 assay, statements over the four cell lines; format: cell-based; details: mouse (NIH-3T3, MEF) and human (WI-38, HEK293T), WST-1, cell line not specified, read-out: EC50 (cytotoxic activity, over the cell lines)
# From the text: as §1
# [7] = test system: HEK293T; assay: Cytotoxicity WST-1 assay on HEK293T; format: cell-based, human; details: Homo sapiens, HEK-293T, 96 h, read-out: EC50 in µM ± SD
# From the text: as §1
# [8] = test system: tumor cell lines (5637, SISO, KYSE-70, MCF-7, LCLC, A427); details: cited from earlier work
# T1 sequence (P68400 whole entry): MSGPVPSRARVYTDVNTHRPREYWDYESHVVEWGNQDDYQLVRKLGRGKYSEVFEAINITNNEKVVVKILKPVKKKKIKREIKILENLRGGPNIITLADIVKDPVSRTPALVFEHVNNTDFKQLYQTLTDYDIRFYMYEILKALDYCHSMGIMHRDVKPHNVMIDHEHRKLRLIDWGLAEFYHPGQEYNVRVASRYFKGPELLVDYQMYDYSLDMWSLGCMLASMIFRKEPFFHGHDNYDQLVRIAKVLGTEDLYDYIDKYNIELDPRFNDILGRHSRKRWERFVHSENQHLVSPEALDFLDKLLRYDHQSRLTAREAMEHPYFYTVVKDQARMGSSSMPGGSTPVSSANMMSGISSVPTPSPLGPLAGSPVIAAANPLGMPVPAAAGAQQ
# T1 sequence (P67870 whole entry partner): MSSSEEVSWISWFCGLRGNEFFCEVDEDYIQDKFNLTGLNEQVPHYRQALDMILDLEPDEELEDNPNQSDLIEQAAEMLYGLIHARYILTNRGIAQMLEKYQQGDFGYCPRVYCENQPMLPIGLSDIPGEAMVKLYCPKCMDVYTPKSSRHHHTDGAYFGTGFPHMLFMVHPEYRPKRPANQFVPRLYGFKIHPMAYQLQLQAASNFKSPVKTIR
Structure (SMILES),IC50 [1] [µM],inhibition at 10 µM [2] [%],EC50 [3] [µM],EC50 [4] [µM],EC50 [5] [µM],EC50 at 96 h [6] [µM],EC50 [7] [µM],growth of tumor cell lines [8]
"Cc1cc(=O)c2c(c1=O)c1c(=O)c3ccccc3c1n2C(C)C [Compound 7f, 5-Isopropyl-8-methyl-5H-indeno[1,2-b]indole-6,9,10-trione]",4.9 ± 0.54,72,> 10,> 10,> 10,0.4 to 8.8,4.4 ± 2.2,
"CC(C)n1c2c(=O)ccc(=O)c2c2c(=O)c3ccccc3c21 [Compound 7h, 5-isopropyl-5H-indeno[1,2-b]indole-6,9,10-trione]",,,,,,,,inhibited the growth
